Experimental findings from patent publication US20090018134A1, “Compounds - 945” (AstraZeneca AB, priority 2007, published 2009) are described below.

Structures are written as SMILES.

One assay deals with T1, mTOR (Homo sapiens, UniProt P42345).
T1 construct: FLAG; made in house
T1 sequence (P42345 1362-2549): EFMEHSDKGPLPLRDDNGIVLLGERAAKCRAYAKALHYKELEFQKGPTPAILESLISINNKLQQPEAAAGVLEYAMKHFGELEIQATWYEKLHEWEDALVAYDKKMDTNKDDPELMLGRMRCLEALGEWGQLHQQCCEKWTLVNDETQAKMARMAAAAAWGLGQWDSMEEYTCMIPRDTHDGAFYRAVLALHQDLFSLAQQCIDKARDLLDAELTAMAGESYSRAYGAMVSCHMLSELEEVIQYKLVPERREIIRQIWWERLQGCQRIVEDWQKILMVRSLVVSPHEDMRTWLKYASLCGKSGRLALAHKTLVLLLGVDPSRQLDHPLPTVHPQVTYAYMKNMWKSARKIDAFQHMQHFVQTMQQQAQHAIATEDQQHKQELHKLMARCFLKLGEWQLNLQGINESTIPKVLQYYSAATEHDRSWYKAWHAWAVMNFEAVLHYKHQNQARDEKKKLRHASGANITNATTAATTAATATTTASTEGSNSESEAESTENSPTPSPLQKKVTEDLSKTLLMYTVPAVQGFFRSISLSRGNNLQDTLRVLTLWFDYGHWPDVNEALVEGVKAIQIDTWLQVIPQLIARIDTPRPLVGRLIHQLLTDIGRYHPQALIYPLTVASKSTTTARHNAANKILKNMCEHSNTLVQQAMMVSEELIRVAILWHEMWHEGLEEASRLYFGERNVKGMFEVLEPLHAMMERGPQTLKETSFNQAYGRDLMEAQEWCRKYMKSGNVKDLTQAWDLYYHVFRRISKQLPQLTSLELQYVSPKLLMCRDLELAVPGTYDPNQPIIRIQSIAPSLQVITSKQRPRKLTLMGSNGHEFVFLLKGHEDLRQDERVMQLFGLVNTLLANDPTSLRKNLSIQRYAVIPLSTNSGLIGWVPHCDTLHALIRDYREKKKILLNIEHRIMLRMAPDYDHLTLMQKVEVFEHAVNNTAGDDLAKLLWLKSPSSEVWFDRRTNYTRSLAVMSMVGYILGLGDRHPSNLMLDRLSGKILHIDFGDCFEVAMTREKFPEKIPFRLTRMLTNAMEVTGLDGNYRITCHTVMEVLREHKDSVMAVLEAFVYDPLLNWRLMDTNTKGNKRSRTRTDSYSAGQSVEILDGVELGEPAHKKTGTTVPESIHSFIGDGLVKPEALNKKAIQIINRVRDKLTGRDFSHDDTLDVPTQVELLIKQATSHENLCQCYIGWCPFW
The experiment in a line: In Vitro mTOR Kinase Assay (Echo), Test (a)(ii). Format: biochemical. The conditions noted are these: read-out: mTOR Kinase Assay (Echo). In short, it runs like this: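 Inhibition of truncated mTOR (1362-2549, FLAG-tagged, purified from stably transfected HEK293 cells) is measured as reduced AlphaScreen signal from a phospho-T389-recognising antibody bound to the biotinylated peptide product. Kinase incubation lasts 2 hours at room temperature. Potency is given as IC50.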
Consider `C[C@H]1COCCN1c1cc(C2(S(=O)(=O)C3CCCC3)CC2)nc(-c2ccc(NC(=O)NC3CC3)cc2)n1` [Example 9, 1-[4-[4-(1-Cyclopentylsulfonylcyclopropyl)-6-[(3S)-3-methylmorpholin-4-yl]pyrimidin-2-yl]phenyl]-3-cyclopropyl-urea], for which the IC50 was determined as 0.0018 µM.
Still for that read-out and setting: in the case of `C[C@H]1COCCN1c1cc(C2(S(C)(=O)=O)CC2)nc(-c2ccc(NC(=O)NCC(C)(C)O)cc2)n1` [Example 2aa, 3-(2-hydroxy-2-methylpropyl)-1-[4-[4-[(3S)-3-methylmorpholin-4-yl]-6-(1-methylsulfonylcyclopropyl)pyrimidin-2-yl]phenyl]urea] it was 0.0274 µM; in that of `CC(C)CNC(=O)Nc1ccc(-c2nc(N3CCOC[C@@H]3C)cc(C3(S(=O)(=O)C(C)C)CC3)n2)cc1` [Example 7i, 1-[4-[4-[(3S)-3-methylmorpholin-4-yl]-6-(1-propan-2-ylsulfonylcyclopropyl)pyrimidin-2-yl]phenyl]-3-(2-methylpropyl)urea], 0.0182 µM; in that of `CS(=O)(=O)C1(c2cc(N3CCOCC3)nc(-c3ccc(NC(=O)NC4CC4)cc3)n2)CCCC1` [Example 12j, 3-cyclopropyl-1-[4-[4-(1-methylsulfonylcyclopentyl)-6-morpholin-4-ylpyrimidin-2-yl]phenyl]urea], 0.00167 µM.
On the same count and under the same terms, in the case of `CC(C)NC(=O)Nc1ccc(-c2nc(N3CCOC[C@@H]3C)cc(C3(S(=O)(=O)C4CC4)CC3)n2)cc1` [Example 3d, 1-[4-[4-(1-cyclopropylsulfonylcyclopropyl)-6-[(3S)-3-methylmorpholin-4-yl]pyrimidin-2-yl]phenyl]-3-propan-2-yl-urea] it was 0.0135 µM; in that of `C[C@H]1COCCN1c1cc(C2(S(=O)(=O)c3ccncc3)CC2)nc(-c2ccc(NC(=O)NCCN(C)C)cc2)n1` [Example 6e, 3-(2-dimethylaminoethyl)-1-[4-[4-[(3S)-3-methylmorpholin-4-yl]-6-(1-pyridin-4-ylsulfonylcyclopropyl)pyrimidin-2-yl]phenyl]urea], 0.0673 µM.

Staying with this assay, now noted: table of enzyme assay Test (a)(ii); read-out: Test (a)(ii) IC50.
On to `C[C@H]1COCCN1c1cc(C2(S(=O)(=O)CCCO)CCOCC2)nc(-c2ccc(NC(=O)Nc3nccs3)cc2)n1` [Example 36ci, 1-[4-[4-[4-(3-hydroxypropylsulfonyl)oxan-4-yl]-6-[(3S)-3-methylmorpholin-4-yl]pyrimidin-2-yl]phenyl]-3-(1,3-thiazol-2-yl)urea], for which the IC50 came to 0.0386 µM.
Same read-out and setting: in the case of `C[C@H]1COCCN1c1cc(C2(S(=O)(=O)c3ccccn3)CCCC2)nc(-c2ccc(NC(=O)NCCCO)cc2)n1` [Example 36ae, 3-(3-hydroxypropyl)-1-[4-[4-[(3S)-3-methylmorpholin-4-yl]-6-(1-pyridin-2-ylsulfonylcyclopentyl)pyrimidin-2-yl]phenyl]urea] it was 0.0151 µM; in that of `CCNC(=O)Nc1ccc(-c2nc(N3CCOC[C@@H]3C)cc(C3(S(=O)(=O)c4c(C)noc4C)CC3)n2)cc1` [Example 59f, 3-[4-[4-[1-[(3,5-dimethyl-1,2-oxazol-4-yl)sulfonyl]cyclopropyl]-6-[(3S)-3-methylmorpholin-4-yl]pyrimidin-2-yl]phenyl]-1-ethylurea], 0.0491 µM; in that of `C[C@H]1COCCN1c1cc(C2(S(C)(=O)=O)CC2)nc(-c2ccc(NC(=S)NCCN(C)C)cc2)n1` [Example 35c, 3-(2-dimethylaminoethyl)-1-[4-[4-[(3S)-3-methylmorpholin-4-yl]-6-(1-methylsulfonylcyclopropyl)pyrimidin-2-yl]phenyl]thiourea], 0.108 µM.
On the same count and under the same terms, under `CNC(=O)Nc1ccc(-c2nc(N3CCOC[C@@H]3C)cc(C3(S(C)(=O)=O)CCOCC3)n2)cc1` [Example 23a, 3-methyl-1-[4-[4-[(3S)-3-methylmorpholin-4-yl]-6-(4-methylsulfonyloxan-4-yl)pyrimidin-2-yl]phenyl]urea] stands 0.00459 µM.
On the same count and under the same terms, under `CNC(=O)Nc1ccc(-c2nc(N3CCOC[C@@H]3C)cc(C3(S(=O)(=O)c4ccc(F)c(Cl)c4)CC3)n2)cc1` [Example 95a, 1-[4-[4-[1-(3-chloro-4-fluorophenyl)sulfonyl-cyclopropyl]-6-[(3S)-3-methylmorpholin-4-yl]pyrimidin-2-yl]phenyl]-3-methylurea] stands 0.0139 µM; under `C[C@H]1COCCN1c1cc(C2(S(=O)(=O)c3ccccc3)CC2)nc(-c2ccc(NC(=O)NCC(=O)N(C)C)cc2)n1` [Example 36dq, 2-[[4-[4-[1-(benzenesulfonyl)cyclopropyl]-6-[(3S)-3-methylmorpholin-4-yl]pyrimidin-2-yl]phenyl]carbamoylamino]-N,N-dimethylacetamide], 0.0245 µM; under `C[C@H]1COCCN1c1cc(C2(S(=O)(=O)c3ccc(F)cc3)CC2)nc(-c2cnc(NC(=O)Nc3cnn(C)c3)nc2)n1` [Example 14h, 1-[5-[4-[1-(4-fluorophenyl)sulfonylcyclopro-pyl]-6-[(3S)-3-methylmorpholin-4-yl]pyrimidin-2-yl]pyrimidin-2-yl]-3-(1-methylpyrazol-4-yl)urea], 0.14 µM.
Consider `C[C@H]1COCCN1c1cc(C2(S(=O)(=O)c3c(F)cccc3F)CC2)nc(-c2ccc(NC(=O)NC3CC3)cc2)n1` [Example 86b, 3-cyclopropyl-1-[4-[4-[1-(2,6-difluorophenyl)sulfonylcyclopropyl]-6-[(3S)-3-methylmorpholin-4-yl]pyrimidin-2-yl]phenyl]urea], for which the IC50 was determined as 0.00725 µM.
Still for that read-out and setting: under `Cc1ccccc1S(=O)(=O)C1(c2cc(N3CCOC[C@@H]3C)nc(-c3ccc(NC(=O)NCC(F)F)cc3)n2)CC1` [Example 54d, 3-(2,2-difluoroethyl)-1-[4-[4-[(3S)-3-methylmorpholin-4-yl]-6-[1-(2-methylphenyl)sulfonylcyclo-propyl]pyrimidin-2-yl]phenyl]urea] stands 0.00882 µM; under `CN1CCN(C(=O)C2(c3cc(N4CCOCC4)nc(-c4ccc(NC(=O)NC5CC5)cc4)n3)CC2)CC1` [Example 33d, 3-cyclopropyl-1-[4-[4-[1-(4-methylpiperazine-1-carbonyl)cyclopropyl]-6-morpholin-4-ylpyrimidin-2-yl]phenyl]urea], 0.133 µM.
Still for that read-out and setting: under `C[C@H]1COCCN1c1cc(C2(S(=O)(=O)c3ccc(Cl)cc3)CCOCC2)nc(-c2ccc(NC(=O)Nc3cnn(C)c3)cc2)n1` [Example 23m, 1-[4-[4-[4-(4-chlorophenyl)sulfonyloxan-4-yl]-6-[(3S)-3-methylmorpholin-4-yl]pyrimidin-2-yl]phenyl]-3-(1-methylpyrazol-4-yl)urea] stands 0.0577 µM; under `CS(=O)(=O)C1(c2cc(N3CCOCC3)nc(-c3ccc(NC(=O)NCCC#N)cc3)n2)CC1` [Example 36r, 3-(2-cyanoethyl)-1-[4-[4-(1-methylsulfonylcyclopropyl)-6-morpholin-4-ylpyrimidin-2-yl]phenyl]urea], 0.00733 µM.
Still for that read-out and setting: in the case of `Cc1csc(S(=O)(=O)C2(c3cc(N4CCOC[C@@H]4C)nc(-c4ccc(NC(=O)NC5(CO)CC5)cc4)n3)CC2)n1` [Example 36q, 3-[1-(hydroxymethyl)cyclopropyl]-1-[4-[4-[(3S)-3-methylmorpholin-4-yl]-6-[1-[(4-methyl-1,3-thiazol-2-yl)sulfonyl]cyclopropyl]pyrimidin-2-yl]phenyl]urea] it was 0.0889 µM; in that of `C[C@H]1COCCN1c1cc(C2(S(=O)(=O)c3cc(F)ccc3F)CC2)nc(-c2ccc(NC(=O)Nc3cnn(C)c3)cc2)n1` [Example 60f, 1-[4-[4-[1-(2,5-difluorophenyl)sulfonylcyclopropyl]-6-[(3S)-3-methylmorpholin-4-yl]pyrimidin-2-yl]phenyl]-3-(1-methylpyrazol-4-yl)urea], 0.0173 µM.
Take `Cc1ccccc1S(=O)(=O)C1(c2cc(N3CCOC[C@@H]3C)nc(-c3ccc(NC(=O)Nc4cnn(C)c4)cc3)n2)CC1` [Example 54f, 1-[4-[4-[(3S)-3-methylmorpholin-4-yl]-6-[1-(2-methylphenyl)sulfonylcyclo-propyl]pyrimidin-2-yl]phenyl]-3-(1-methylpyrazol-4-yl)urea]: the IC50 came out at 0.0107 µM.
As for `CC[C@H]1COCCN1c1cc(C2(S(C)(=O)=O)CC2)nc(-c2ccc(NC(=O)Nc3cnn(C)c3)cc2)n1` [Example 84f, 1-[4-[4-[(3S)-3-ethylmorpholin-4-yl]-6-(1-methylsulfonylcyclopropyl)pyrimidin-2-yl]phenyl]-3-(1-methylpyrazol-4-yl)urea], the IC50 amounted to 0.0134 µM.
Still for that read-out and setting: under `C[C@H]1COCCN1c1cc(C2(S(=O)(=O)CCCO)CCC2)nc(-c2ccc(NC(=S)NCCCO)cc2)n1` [Example 99i, 3-(3-hydroxypropyl)-1-[4-[4-[1-(3-hydroxypropylsulfonyl)cyclobutyl]-6-[(3S)-3-methylmorpholin-4-yl]pyrimidin-2-yl]phenyl]thiourea] stands 0.0594 µM.
Still for that read-out and setting: in the case of `CCS(=O)(=O)C1(c2cc(N3CCOC[C@@H]3C)nc(-c3ccc(NC(=O)NC(C)(C)CO)cc3)n2)CCC1` [Example 87d, 1-[4-[4-(1-ethylsulfonylcyclobutyl)-6-[(3S)-3-methylmorpholin-4-yl]pyrimidin-2-yl]phenyl]-3-(1-hydroxy-2-methylpropan-2-yl)urea] it was 0.0177 µM; in that of `CNC(=S)Nc1ccc(-c2nc(N3CCOC[C@@H]3C)cc(C3(S(C)(=O)=O)CC3)n2)cc1` [Example 35, 3-Methyl-1-[4-[4-[(3S)-3-methylmorpholin-4-yl]-6-(1-methylsulfonylcyclopropyl)pyrimidin-2-yl]phenyl]thiourea], 0.00531 µM.
As to `C[C@H]1COCCN1c1cc(C2(S(C)(=O)=O)CCCC2)nc(-c2ccc(NC(=O)NCCN(C)C)nc2)n1` [Example 14p, 3-(2-dimethylaminoethyl)-1-[5-[4-[(3S)-3-methylmorpholin-4-yl]-6-(1-methylsulfonylcyclopentyl)pyri-midin-2-yl]pyridin-2-yl]urea], the IC50 came out at 0.537 µM.
The same measure, in the same setting: under `CN(C)CCNC(=O)Nc1ccc(-c2nc(N3CCOCC3)cc(C3(S(=O)(=O)C4CC4)CCCC3)n2)cc1` [Example 13n, 1-[4-[4-(1-cyclopropylsulfonylcyclopentyl)-6-morpholin-4-ylpyrimidin-2-yl]phenyl]-3-(2-dimethylaminoethyl)urea] stands 0.997 µM.
